Assay results published in patent publication US8415156B2, “Recombinant laminin-521” (Biolamina AB, priority 2010, dated 2013).

What was measured:
[1] = test system: HS181 cells; test: Single cell survival / cell adhesion, 1 day after plating (Example 1); type: cell-based, human
Experimental: (§1) Human ES cells were cultured on r-laminin-521-coated laboratory dishes in chemically defined O3 medium (described in Rodin et al., Nature Biotechnol., vol. 28, pp. 611-615 (2010)) at 37° C. in 5% CO2. Cells were routinely passed once every 10-12 days by exposure to Trypsin-EDTA solution (GIBCO Invitrogen) for 5 minutes at 37° C. They were then gently pipetted to break into single-cell suspension and defined trypsin inhibitor (GIBCO Invitrogen) was added. The cell suspension was centrifuged […], the supernatant discarded, the cell pellet resuspended in prewarmed O3 medium, and cells were then passed through a 40 μm sieve. After that cells were plated on new r-laminin-521-coated dishes at a concentration 30 Kcells/cm^2 (1:25-1:30 split ratio). Cells were fed once a day with fresh medium prewarmed in an incubator for 1 hour, except for the first day after a passage, when only a few drops of fresh medium were added. Control cells of the same line were cultured on Matrigel (BD Biosciences) in O3 medium as described in Rodin et al., Nature Biotechnol., vol. 28, pp. 611-615 (2010). Control cells were passaged in pieces.
Ninety-six-well tissue cell culture plates were coated overnight at 4° C. with sterile solutions of the ECM proteins mouse LN-111 (Invitrogen), human recombinant LN-511, and human recombinant LN-521, all at a concentration of 30 μg/ml (5 μg/cm^2). For control cells, BD Matrigel™ hESC qualified (BD Biosciences) was used according to the manufacturer's instructions.
The assay was performed as described (Extracellular Matrix Protocols, 2000). Briefly, 96-well plates were coated by extracellular matrix proteins as described above and blocked by O3 medium containing bovine serum albumin. The ES cells were plated at a cell density of 600 cell/mm^2 upon extracellular matrix-coated plates and were left to adhere for either 1 hour or 1 day at the cell incubator. Non-adherent cells were washed away, and adherent cells were fixed for 20 min by 5% glutaraldehyde, stained by 0.1% Crystal Violet.

[2] = test system: human ES cells; test: Long-term culture with single cell dissociation passaging (Example 1); type: cell-based; conditions: for proliferation rate compared with Matrigel / classical methods: single cell suspension passaging vs passaging in clumps
Experimental: as §1

[3] = test system: OCT4; test: FACS analysis for Oct4; type: cell-based, human; conditions: after several single cell suspension passages, O3 medium without additives
Experimental: OCT4 expression was analyzed as described in Ludwig, T. E. et al. Derivation of human embryonic stem cells in defined conditions. Nat. Biotechnol. 24, 185-187 (2006). Cells were run on FACSCalibur Flow Cytometer (Becton Dickinson). Data were analyzed with CellQuest software (Becton Dickinson).

[4] = test system: Oct4 and Nanog; test: Real-time quantitative RT-PCR of pluripotency markers (Example 1); type: cell-based, human; conditions: after several single cell dissociation passages
Experimental: Total RNA was isolated and cDNA was synthesized as described in Rodin et al., Nature Biotechnol., vol. 28, pp. 611-615 (2010). Real-time quantitative RT-PCR Taqman assays were performed using the Applied Biosystems 7300 Real-Time PCR System. All reactions were done in quadruplicate with predeveloped gene expression assay mix (Applied Biosystems) containing primers and a probe for the mRNA of interest. Additional reactions for each experiment included predeveloped gene expression assay mix for GAPDH, used to normalize the RNA input. All data were analyzed with 7300 System SDS Software version 1.4.

[5] = test system: hES cells; test: Cell survival assay, 24 hours (Example 2); type: cell-based, human
Experimental: Tissue cell culture plates were coated overnight at 4° C. with sterile solutions of the ECM proteins, such as human recombinant LN-521, all at a concentration of 30 μg/ml (5 μg/cm^2). Control plates were coated with Matrigel according to the STEMCELL Technologies' instructions. Prior to use, dishes were pre-warmed in an incubator for one hour after which prewarmed O3 medium was added without additional washing of the dish. After applying a fresh LN-521 solution to a new dish, the remaining LN-521 solution could be used at least once more. All the adhesion, survival, and inhibition of survival experiments were carried out using fresh coating materials.
Briefly, 96-well plates were coated by extracellular matrix proteins as described above and blocked by O3 medium containing bovine serum albumin. The ES cells were plated at cell density of 50,000 cells/cm^2 onto extracellular matrix-coated plates and left to adhere for 1 hour in a cell incubator. After that the plates were washed 3 times with the medium to remove the non-adherent cells, and then the adherent cells were fixed for 20 minutes by 5% glutaraldehyde, stained by 0.1% Crystal Violet. (Kebo Lab, Spanga, Sweden, www.kebolab.se). After one hour and 3 washes with water, Crystal Violet was extracted with 10% acetic acid and quantified by measuring optical density at 570 nm. All the experiments were performed in quadruplicate.
The survival assay was performed as described for the cell adhesion assay above, except that the cells were left in the cell incubator for 24 hours. For inhibition of survival assay, the cells were kept in a medium with function blocking antibodies at the concentrations recommended by the manufacturer or pathway inhibitors at concentrations indicated in the text for 30 minutes, and then plated on the coated dishes. All the experiments were performed in quadruplicate.
Pluripotent hES cells express α1, α5, β1, β2 and γ1 laminin chains. To compare the adhesion and clonal survival of hES cells plated from single cell suspension to different coating substrata, hES cells growing as monolayers on LN-511 or as clusters on a feeder layer were trypsinized into single cell suspension in O3 medium and plated on cell culture dishes coated with Matrigel, LN-111, LN-511, LN-521 or a mixture of LN-511 and LN-521, in the absence or presence of a ROCK inhibitor (Y-27632) and analyzed after 24 hours.

[6] = test system: human iPS ChiPSW and CutB1.2 cells; test: Long-term self-renewal of human iPS cells on LN-521; type: cell-based; conditions: mTeSR1
[7] = test system: human embryonic stem cell; test: Survival after dissociation into single cell suspension (description); type: cell-based; conditions: O3 medium; 30 Kcells/cm^2; precoated dishes
Source text: In other aspects, the present disclosure provides a new material, isolated laminin-521, which permits human embryonic stem cell survival after dissociation into single cell suspension. The stem cells were dissociated into single cell suspension by Trypsin-EDTA treatment, pelleted by centrifugation, resuspended into O3 medium, filtered through a 40 μm sieve, and plated at a density of 30 Kcells/cm^2 on cell culture dishes precoated by either isolated laminin-521, laminin-511, or Matrigel. After one day in culture, the cells plated on Matrigel died, as is known in the art.

Substance: LN-521: protein formed by joining α5, β2 and γ1 chains together; human recombinant, produced in HEK293 cells
- adhesion at 1 day without additives compared with dishes including the ROCK inhibitor ([1]; 1 day after plating): similar
- adhesion at 1 day relative to Matrigel without additives ([1]; 1 day after plating, without additives): 20 times
- adhesion at 1 day without additives compared with dishes including the ROCK inhibitor ([1]; 1 day after plating, listed as LN-532): no ROCK inhibitor is necessary
- single cell survival / cells remaining attached 24 hours after plating ([1]; O3 medium without any additives, completely dissociated HS181 cells): survived
- passages in single cell suspension giving the same number of cell divisions as cultures on Matrigel after 20 passages ([2]; 3 passages = 1 month, Matrigel passaged in pieces, 20 passages (3 months / 100 days)): 3 passages
- passages with robust proliferation at a stable and high rate ([2]; single cell passaging every 10-12 days, 1:25 to 1:30 ratios, 3 months): at least 9 passages
- proliferation rate compared with Matrigel / classical methods [2]: much faster rate
- proliferation rate compared with Matrigel / classical methods ([2]; listed as laminin-521): higher rate
- percentage of Oct4 positive (pluripotent) cells compared with Matrigel [3]: much higher percentage
- number of mRNA transcripts of Oct4 and Nanog compared with Matrigel [4]: higher numbers of transcripts
- survival of Y-27632 treated human ES cells on LN-521 compared with Matrigel ([5]; 10 μM of Y-27632, 40,000 cells per 1 cm^2): survived better
- survival on LN-521 compared with LN-511 ([5]; 24 hours, absence of ROCK inhibitor): significantly higher
- cell shape of cells growing on LN-521 24 hours after plating ([5]; LN-521 row: absence of ROCK inhibitor, Y-27632 row: presence of ROCK inhibitor): round
- survival relative to Matrigel, exogenous bFGF removed ([5]; O3 medium without exogenous bFGF): 20 times
- survival of hES cells plated from single cell suspension after 24 hours ([5]; O3 medium, absence of ROCK inhibitor): did so as single cells
- survival 24 hours after plating in medium lacking all growth factors of the TeSR1 formulation ([5]; no bFGF, LiCl, GABA, pipecolic acid and TGFβ): survived
- passages cultured, ChiPSW cells [6]: 3 passages
- passages cultured, CutB1.2 iPS cells [6]: 5 passages
- survival of hES cells plated from single cell suspension after one day in culture [7]: survived and started to proliferate
